Where “and” joins values, the source holds several entries; their conditions need not be identical. Equal values may be shown once. Read-outs that look alike come from different tables or passages of the source.
Columns and labels:
K562 cells = test: SRB cell viability assay, daunorubicin-sensitive K562 cells; assay type: cell-based, human; conditions: Homo sapiens, K562, read-out: IC50 of drug when cells treated with drug only
Experimental: Cell culture of the above cell lines was performed as described in Example 2, except that 5,000, rather than 3,000 cells were plated per well for the K562, K562/Dox, BT474, SkBr3 lines.
Table 17 also contains the serially-diluted concentrations of drugs that each cell line was tested against.
Table 36 reports the cell viability data relating to pre-treatment with LTG-E prior to daunorubicin treatment. Table 37 reports control data obtained from cells that were not pre-treated with LGT-E prior to daunorubicin treatment. FIG. 15 summarizes the data of Tables 36 and 37 in a graphical format.

K562/Dox cells = test: SRB cell viability assay, daunorubicin-resistant K562/Dox cells; assay type: cell-based, human; conditions: Homo sapiens

SMILES: COc1cccc2c1C(=O)c1c(O)c3c(c(O)c1C2=O)C[C@@](O)(C(C)=O)C[C@@H]3O[C@H]1C[C@H](N)[C@H](O)[C@H](C)O1 [daunorubicin]
- IC50 (K562 cells): 1.05 µM and 0.55 µg/mL
- IC50 (K562/Dox cells; K562, read-out: IC50 of drug when cells pre-treated with Chemosensitizing Agent before drug treatment): 6.53 µM and 3.45 µg/mL
- IC50 (K562/Dox cells; K562, read-out: IC50 of drug when cells treated with drug only): 32.6 µM and 17.2 µg/mL

— patent US10149876B2, “Tripterygium wilfordii extracts to overcome chemotherapy resistance” (WESTERN UNIVERSITY OF HEALTH SCIENCES, priority 2012, dated 2018)
